Data: ChEMBL document CHEMBL4507259 (2021)

Legend:
[1] = biological target: SRSF protein kinase 2 (Homo sapiens) (UniProt P78362); conditions: Compound concentration 1000.0 nM
[2] = biological target: Serine/threonine-protein kinase 32B (Homo sapiens) (UniProt Q9NY57); conditions: Compound concentration 1000.0 nM
[3] = biological target: GABA-A receptor; anion channel (Homo sapiens) (UniProt P14867+P47870+P18507+P28472+P48169+Q99928+Q9UN88+P34903+O00591+O14764+Q8N1C3+P18505+P78334+P47869+P31644+Q16445); assay: Cl- channel (GABA-gated) CEREP ligand profiling; type: protein-complex assay; conditions: filed as antagonist; Compound concentration 10.0 uM
[4] = biological target: Cytoplasmic tyrosine-protein kinase BMX (Homo sapiens) (UniProt P51813); conditions: Compound concentration 1000.0 nM
[5] = biological target: Sodium/potassium-transporting ATPase (Homo sapiens) (UniProt P05023+P14415+P05026+P50993+P54709+P13637+Q13733+P54710); assay: ATPase (Na+/K+) CEREP ligand profiling; type: protein-complex assay; conditions: Compound concentration 10.0 uM
[6] = biological target: Death-associated protein kinase 2 (Homo sapiens) (UniProt Q9UIK4); conditions: Compound concentration 1000.0 nM
[7] = biological target: Bone morphogenetic protein receptor type-1A (Homo sapiens) (UniProt P36894); conditions: Compound concentration 1000.0 nM
[8] = biological target: Inhibitor of nuclear factor kappa-B kinase subunit alpha (Homo sapiens) (UniProt O15111); conditions: Compound concentration 1000.0 nM
[9] = biological target: Serine/threonine-protein kinase PLK1 (Homo sapiens) (UniProt P53350); conditions: Compound concentration 1000.0 nM
[10] = biological target: T1, 5-hydroxytryptamine receptor 2C (Homo sapiens) (UniProt P28335); conditions: Compound concentration 10.0 uM
T1 sequence (whole entry): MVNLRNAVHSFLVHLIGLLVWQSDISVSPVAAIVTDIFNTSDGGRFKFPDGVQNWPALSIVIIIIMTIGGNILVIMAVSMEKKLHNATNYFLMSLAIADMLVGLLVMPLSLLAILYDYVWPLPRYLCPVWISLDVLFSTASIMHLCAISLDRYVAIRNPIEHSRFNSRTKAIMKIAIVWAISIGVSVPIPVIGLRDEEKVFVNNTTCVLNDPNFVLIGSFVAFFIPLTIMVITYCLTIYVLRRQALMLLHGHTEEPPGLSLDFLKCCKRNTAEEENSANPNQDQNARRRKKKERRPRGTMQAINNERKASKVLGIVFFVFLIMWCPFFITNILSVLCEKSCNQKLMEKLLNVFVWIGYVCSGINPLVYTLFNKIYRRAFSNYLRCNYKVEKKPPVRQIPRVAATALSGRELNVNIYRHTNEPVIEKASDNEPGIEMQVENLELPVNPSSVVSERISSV

[11] = tested on: Proto-oncogene tyrosine-protein kinase receptor Ret (Homo sapiens), P07949 [M918T]; conditions: Compound concentration 1000.0 nM
[12] = biological target: Serine/threonine-protein kinase SIK1 (Homo sapiens) (UniProt P57059); conditions: Compound concentration 1000.0 nM
[13] = biological target: Serine/threonine-protein kinase SIK2 (Homo sapiens) (UniProt Q9H0K1); conditions: Compound concentration 1000.0 nM
[14] = biological target: Mitogen-activated protein kinase kinase kinase 13 (Homo sapiens) (UniProt O43283); conditions: Compound concentration 1000.0 nM
[15] = biological target: Tyrosine-protein kinase receptor Tie-1 (Homo sapiens) (UniProt P35590); conditions: Compound concentration 1000.0 nM
[16] = biological target: LIM domain kinase 2 (Homo sapiens) (UniProt P53671); conditions: Compound concentration 1000.0 nM
[17] = biological target: Serine/threonine-protein kinase ULK1 (Homo sapiens) (UniProt O75385); conditions: Compound concentration 1000.0 nM
[18] = biological target: Cyclin-dependent kinase-like 5 (Homo sapiens) (UniProt O76039); conditions: Compound concentration 1000.0 nM
[19] = biological target: Glycogen synthase kinase-3 alpha (Homo sapiens) (UniProt P49840); conditions: Compound concentration 1000.0 nM
[20] = biological target: Beta-adrenergic receptor kinase 1 (Homo sapiens) (UniProt P25098); conditions: Compound concentration 1000.0 nM
[21] = biological target: Histamine H4 receptor (Homo sapiens) (UniProt Q9H3N8); conditions: Compound concentration 10.0 uM
[22] = biological target: MAP kinase-activated protein kinase 2 (Homo sapiens) (UniProt P49137); conditions: Compound concentration 1000.0 nM
[23] = biological target: Focal adhesion kinase 1 (Homo sapiens) (UniProt Q05397); conditions: Compound concentration 1000.0 nM
[24] = biological target: Serine/threonine-protein kinase MARK1 (Homo sapiens) (UniProt Q9P0L2); conditions: Compound concentration 1000.0 nM
[25] = biological target: Estrogen receptor (Homo sapiens) (UniProt P03372); assay: Estrogen ER alpha (h) CEREP ligand profiling; conditions: filed as agonist, Compound concentration 10.0 uM
[26] = biological target: Type-2 angiotensin II receptor (Homo sapiens) (UniProt P50052); assay: AT2 (h) CEREP ligand profiling; conditions: filed as agonist, Compound concentration 10.0 uM
[27] = biological target: Mitogen-activated protein kinase kinase kinase 20 (Homo sapiens) (UniProt Q9NYL2); conditions: Compound concentration 1000.0 nM
[28] = biological target: Mast/stem cell growth factor receptor Kit (Homo sapiens) (UniProt P10721); conditions: Compound concentration 1000.0 nM
[29] = biological target: Serine/threonine-protein kinase PLK3 (Homo sapiens) (UniProt Q9H4B4); conditions: Compound concentration 1000.0 nM
[30] = biological target: Serine/threonine-protein kinase pim-1 (Homo sapiens) (UniProt P11309); conditions: Compound concentration 1000.0 nM
[31] = tested on: Tyrosine-protein kinase ABL1 (Homo sapiens), P00519 [F317I]; conditions: Compound concentration 1000.0 nM
[32] = GPCRScan assay: inhibition of GABA/PBR; parameters: species or system Rattus norvegicus; radioligand conc. used [nm] 0.3 – 2.0, parental cells brain tissue
[33] = biological target: Mitogen-activated protein kinase kinase kinase 4 (Homo sapiens) (UniProt Q9Y6R4); conditions: Compound concentration 1000.0 nM
[34] = biological target: Interleukin-1 receptor-associated kinase 4 (Homo sapiens) (UniProt Q9NWZ3); conditions: Compound concentration 1000.0 nM
[35] = tested on: Phosphatidylinositol 4,5-bisphosphate 3-kinase catalytic subunit alpha isoform (Homo sapiens), P42336 [E542K]; conditions: Compound concentration 1000.0 nM
[36] = tested on: Receptor-type tyrosine-protein kinase FLT3 (Homo sapiens), P36888 [D835V]; conditions: Compound concentration 1000.0 nM

Chain of MAP kinase-activated protein kinase 2 (Homo sapiens) (P49137 whole entry, looked up): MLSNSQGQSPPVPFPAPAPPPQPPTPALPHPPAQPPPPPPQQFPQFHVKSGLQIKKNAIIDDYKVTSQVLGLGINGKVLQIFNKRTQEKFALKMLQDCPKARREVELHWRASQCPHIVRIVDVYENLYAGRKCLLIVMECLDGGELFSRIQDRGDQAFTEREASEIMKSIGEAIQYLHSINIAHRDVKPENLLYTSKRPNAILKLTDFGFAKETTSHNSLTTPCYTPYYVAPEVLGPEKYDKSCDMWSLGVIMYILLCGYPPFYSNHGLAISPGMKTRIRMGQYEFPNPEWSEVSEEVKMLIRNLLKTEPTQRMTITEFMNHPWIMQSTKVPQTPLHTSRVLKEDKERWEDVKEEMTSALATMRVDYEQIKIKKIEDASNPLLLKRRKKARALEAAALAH
Chain of Inhibitor of nuclear factor kappa-B kinase subunit alpha (Homo sapiens) (O15111 whole entry): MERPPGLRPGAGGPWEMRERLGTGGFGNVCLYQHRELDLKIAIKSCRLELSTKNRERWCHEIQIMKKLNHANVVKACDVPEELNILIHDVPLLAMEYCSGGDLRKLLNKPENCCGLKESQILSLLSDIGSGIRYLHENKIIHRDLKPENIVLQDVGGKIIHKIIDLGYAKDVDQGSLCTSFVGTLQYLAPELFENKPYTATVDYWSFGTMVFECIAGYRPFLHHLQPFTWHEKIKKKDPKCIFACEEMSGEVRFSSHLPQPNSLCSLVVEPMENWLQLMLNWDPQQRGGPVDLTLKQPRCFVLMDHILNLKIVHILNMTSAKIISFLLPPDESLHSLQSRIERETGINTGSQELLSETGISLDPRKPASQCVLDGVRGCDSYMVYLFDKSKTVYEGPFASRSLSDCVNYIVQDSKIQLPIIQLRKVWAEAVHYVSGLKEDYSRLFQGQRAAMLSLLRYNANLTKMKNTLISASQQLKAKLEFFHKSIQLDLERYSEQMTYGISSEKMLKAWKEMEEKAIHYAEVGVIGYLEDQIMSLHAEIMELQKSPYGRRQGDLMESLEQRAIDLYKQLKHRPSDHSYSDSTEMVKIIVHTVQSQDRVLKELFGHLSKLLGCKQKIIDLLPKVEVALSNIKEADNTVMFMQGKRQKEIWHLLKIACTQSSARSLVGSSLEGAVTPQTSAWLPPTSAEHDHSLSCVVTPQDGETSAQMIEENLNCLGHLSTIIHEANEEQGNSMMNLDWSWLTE
Chain of Death-associated protein kinase 2 (Homo sapiens) (Q9UIK4 whole entry, looked up): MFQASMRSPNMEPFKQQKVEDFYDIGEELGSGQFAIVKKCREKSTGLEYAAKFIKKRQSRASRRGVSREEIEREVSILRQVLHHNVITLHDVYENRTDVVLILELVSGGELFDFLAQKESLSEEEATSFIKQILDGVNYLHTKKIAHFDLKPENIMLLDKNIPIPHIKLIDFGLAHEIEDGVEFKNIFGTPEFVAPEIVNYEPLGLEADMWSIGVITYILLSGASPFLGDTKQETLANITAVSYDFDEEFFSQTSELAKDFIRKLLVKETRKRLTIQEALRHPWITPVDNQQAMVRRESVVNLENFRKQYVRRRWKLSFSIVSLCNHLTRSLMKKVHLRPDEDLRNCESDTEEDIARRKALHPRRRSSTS
Chain of Serine/threonine-protein kinase PLK3 (Homo sapiens) (Q9H4B4 whole entry, looked up): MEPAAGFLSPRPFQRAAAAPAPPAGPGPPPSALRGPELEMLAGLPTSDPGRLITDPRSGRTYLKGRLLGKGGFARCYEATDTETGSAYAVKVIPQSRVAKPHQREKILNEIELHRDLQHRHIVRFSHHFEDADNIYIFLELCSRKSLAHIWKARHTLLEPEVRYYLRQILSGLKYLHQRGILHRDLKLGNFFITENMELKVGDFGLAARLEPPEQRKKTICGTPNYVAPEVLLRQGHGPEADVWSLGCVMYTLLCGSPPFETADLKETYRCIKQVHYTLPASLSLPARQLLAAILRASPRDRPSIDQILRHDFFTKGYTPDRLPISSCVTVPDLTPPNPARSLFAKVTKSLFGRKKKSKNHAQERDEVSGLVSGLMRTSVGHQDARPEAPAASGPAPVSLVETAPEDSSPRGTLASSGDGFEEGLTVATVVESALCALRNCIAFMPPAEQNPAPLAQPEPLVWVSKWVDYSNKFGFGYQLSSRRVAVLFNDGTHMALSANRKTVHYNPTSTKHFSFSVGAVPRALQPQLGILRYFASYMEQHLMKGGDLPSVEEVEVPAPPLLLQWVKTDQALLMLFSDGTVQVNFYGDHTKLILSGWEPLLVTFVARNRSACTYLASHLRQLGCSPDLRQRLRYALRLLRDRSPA
Chain of Type-2 angiotensin II receptor (Homo sapiens) (P50052 whole entry): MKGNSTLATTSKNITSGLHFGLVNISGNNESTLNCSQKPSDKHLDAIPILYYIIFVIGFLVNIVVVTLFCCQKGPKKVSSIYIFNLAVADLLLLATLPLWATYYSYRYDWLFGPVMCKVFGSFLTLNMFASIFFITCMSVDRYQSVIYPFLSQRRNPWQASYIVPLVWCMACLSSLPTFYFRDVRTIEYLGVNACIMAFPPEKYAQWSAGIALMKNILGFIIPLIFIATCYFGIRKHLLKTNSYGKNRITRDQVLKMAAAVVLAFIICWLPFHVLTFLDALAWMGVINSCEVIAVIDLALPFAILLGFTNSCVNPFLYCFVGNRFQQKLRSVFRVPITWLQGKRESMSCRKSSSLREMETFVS
Chain of Tyrosine-protein kinase receptor Tie-1 (Homo sapiens) (P35590 whole entry, the tested form may be a part): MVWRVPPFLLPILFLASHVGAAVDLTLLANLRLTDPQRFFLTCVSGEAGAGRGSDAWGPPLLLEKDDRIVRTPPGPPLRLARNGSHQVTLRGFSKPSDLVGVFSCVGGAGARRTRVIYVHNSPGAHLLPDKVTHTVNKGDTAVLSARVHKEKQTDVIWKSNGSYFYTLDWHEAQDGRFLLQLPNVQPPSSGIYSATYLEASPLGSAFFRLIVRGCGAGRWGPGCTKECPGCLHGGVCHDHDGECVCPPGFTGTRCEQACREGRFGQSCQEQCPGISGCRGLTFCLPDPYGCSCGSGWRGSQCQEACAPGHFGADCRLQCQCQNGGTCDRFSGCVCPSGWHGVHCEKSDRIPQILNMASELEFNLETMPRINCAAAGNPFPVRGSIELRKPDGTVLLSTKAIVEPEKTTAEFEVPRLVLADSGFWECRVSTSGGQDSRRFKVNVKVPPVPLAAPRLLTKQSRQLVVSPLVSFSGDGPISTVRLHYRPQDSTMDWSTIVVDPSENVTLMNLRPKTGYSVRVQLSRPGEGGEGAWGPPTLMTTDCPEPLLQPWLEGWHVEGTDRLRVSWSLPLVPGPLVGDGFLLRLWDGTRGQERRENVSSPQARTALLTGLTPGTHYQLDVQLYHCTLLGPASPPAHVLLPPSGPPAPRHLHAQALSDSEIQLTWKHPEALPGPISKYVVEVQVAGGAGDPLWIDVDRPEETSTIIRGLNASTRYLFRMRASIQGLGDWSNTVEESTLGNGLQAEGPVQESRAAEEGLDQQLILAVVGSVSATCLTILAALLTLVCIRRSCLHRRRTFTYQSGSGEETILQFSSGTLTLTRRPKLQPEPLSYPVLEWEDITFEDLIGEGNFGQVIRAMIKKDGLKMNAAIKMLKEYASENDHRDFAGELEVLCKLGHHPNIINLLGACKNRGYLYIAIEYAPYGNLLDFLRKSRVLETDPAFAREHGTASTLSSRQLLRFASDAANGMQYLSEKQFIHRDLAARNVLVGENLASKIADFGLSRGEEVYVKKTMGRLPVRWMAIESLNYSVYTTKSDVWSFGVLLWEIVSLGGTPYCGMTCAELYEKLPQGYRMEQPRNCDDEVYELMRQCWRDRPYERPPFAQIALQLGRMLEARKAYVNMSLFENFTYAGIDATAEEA
Chain of Serine/threonine-protein kinase 32B (Homo sapiens) (Q9NY57 whole entry): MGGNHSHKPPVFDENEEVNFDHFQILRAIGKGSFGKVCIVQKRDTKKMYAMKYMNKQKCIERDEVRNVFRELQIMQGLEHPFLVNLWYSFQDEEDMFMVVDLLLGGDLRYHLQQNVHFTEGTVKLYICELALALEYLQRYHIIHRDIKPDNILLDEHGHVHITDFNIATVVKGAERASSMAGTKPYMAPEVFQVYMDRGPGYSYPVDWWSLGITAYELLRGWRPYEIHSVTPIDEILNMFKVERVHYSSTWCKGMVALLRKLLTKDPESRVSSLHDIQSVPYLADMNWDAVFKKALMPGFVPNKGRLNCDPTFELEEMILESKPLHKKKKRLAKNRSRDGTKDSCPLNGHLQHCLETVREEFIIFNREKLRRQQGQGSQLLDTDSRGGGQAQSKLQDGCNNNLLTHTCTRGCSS
Chain of SRSF protein kinase 2 (Homo sapiens) (P78362 whole entry, looked up): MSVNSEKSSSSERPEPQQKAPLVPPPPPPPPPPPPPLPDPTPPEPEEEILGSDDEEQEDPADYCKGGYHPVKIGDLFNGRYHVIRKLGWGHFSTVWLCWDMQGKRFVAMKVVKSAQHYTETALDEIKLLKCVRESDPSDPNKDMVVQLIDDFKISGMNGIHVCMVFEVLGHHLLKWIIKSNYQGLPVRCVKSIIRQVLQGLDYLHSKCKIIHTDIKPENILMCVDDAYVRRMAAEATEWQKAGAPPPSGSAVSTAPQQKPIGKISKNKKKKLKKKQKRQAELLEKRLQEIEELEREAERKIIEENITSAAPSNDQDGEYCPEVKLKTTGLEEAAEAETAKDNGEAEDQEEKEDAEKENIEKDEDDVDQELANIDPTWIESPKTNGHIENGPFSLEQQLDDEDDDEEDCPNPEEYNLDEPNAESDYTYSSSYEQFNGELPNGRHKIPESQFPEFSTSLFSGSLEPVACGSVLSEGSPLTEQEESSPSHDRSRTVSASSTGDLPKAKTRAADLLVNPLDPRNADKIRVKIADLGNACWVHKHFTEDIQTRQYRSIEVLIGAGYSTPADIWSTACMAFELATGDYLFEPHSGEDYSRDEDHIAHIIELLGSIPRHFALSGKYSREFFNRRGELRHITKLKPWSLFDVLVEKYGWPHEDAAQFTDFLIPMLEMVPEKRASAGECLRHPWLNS

| Structure (SMILES) | residual activity [1] [%] | residual activity [2] [%] | inhibition [3] [%] | residual activity [4] [%] | inhibition [5] [%] | residual activity [6] [%] | residual activity [7] [%] | residual activity [8] [%] | residual activity [9] [%] | inhibition [10] [%] | residual activity [11] [%] | residual activity [12] [%] | residual activity [13] [%] | residual activity [14] [%] | residual activity [15] [%] | residual activity [16] [%] | residual activity [17] [%] | residual activity [18] [%] | residual activity [19] [%] | residual activity [20] [%] | also measured |
| --- | --- | --- | --- | --- | --- | --- | --- | --- | --- | --- | --- | --- | --- | --- | --- | --- | --- | --- | --- | --- | --- |
| CNC(=O)Nc1ccc2c(c1)[C@@]1(CC2)OC(=O)N(CC(=O)N(Cc2ccc(F)cc2)[C@@H](C)C(F)(F)F)C1=O [A-486] | 100 | 67 | 41 | 99 | -1 | 100 | 100 | 100 | 82 | -3.43 | 100 | 90 | 88 | 100 | 100 | 90 | 64 | 82 | 92 | 76 | inhibition [21]: 5.16%; residual activity [22]: 100%; residual activity [23]: 100%; residual activity [24]: 100%; inhibition [25]: -10%; inhibition [26]: 2%; residual activity [27]: 93%; residual activity [28]: 94%; residual activity [29]: 84%; residual activity [30]: 100%; residual activity [31]: 73%; Ki [32]: 2580 nM; pKi [32]: 5.6; residual activity [33]: 87%; residual activity [34]: 94%; residual activity [35]: 69%; residual activity [36]: 81% |
| CNC(=O)Nc1ccc2c(c1)CC[C@@]21OC(=O)N(CC(=O)N(Cc2ccc(F)cc2)[C@@H](C)C(F)(F)F)C1=O [A-485] | 100 | 90 | 47 | 72 | -1 | 92 | 91 | 92 | 63 | 16.5 | 95 | 98 | 88 | 68 | 89 | 88 | 70 | 69 | 99 | 74 | inhibition [21]: 10.1%; residual activity [22]: 87%; residual activity [23]: 94%; residual activity [24]: 89%; inhibition [25]: 5%; inhibition [26]: 12%; residual activity [27]: 82%; residual activity [28]: 100%; residual activity [29]: 86%; residual activity [30]: 100%; residual activity [31]: 87%; Ki [32]: 1110 nM; pKi [32]: 5.96; residual activity [33]: 89%; residual activity [34]: 78%; residual activity [35]: 76%; residual activity [36]: 76% |
